Key:
[1] = biological target: Phosphoenolpyruvate carboxykinase, cytosolic [GTP] [H477R] (Rat, UniProt P07379, H477R); test: PEPCK Inhibition Assay
Description: (§1) The inhibition of H477R PEPCK by β-sulfopyruvate (βSP), oxalate, and GMPPCP was conducted in the direction of PEP synthesis (OAA → PEP). The Michaelis constant of OAA was determined at various fixed concentrations of β-SP (0−100 μM) or oxalate (0−1000 μM), and the Michaelis constant for GTP was determined at various fixed concentrations of GMPPCP (0-800 μM).

[2] = biological target: T1, Phosphoenolpyruvate carboxykinase, cytosolic [GTP] (Rattus norvegicus, UniProt P07379); test: PEPCK Inhibition Assay
T1 sequence (P07379 whole entry): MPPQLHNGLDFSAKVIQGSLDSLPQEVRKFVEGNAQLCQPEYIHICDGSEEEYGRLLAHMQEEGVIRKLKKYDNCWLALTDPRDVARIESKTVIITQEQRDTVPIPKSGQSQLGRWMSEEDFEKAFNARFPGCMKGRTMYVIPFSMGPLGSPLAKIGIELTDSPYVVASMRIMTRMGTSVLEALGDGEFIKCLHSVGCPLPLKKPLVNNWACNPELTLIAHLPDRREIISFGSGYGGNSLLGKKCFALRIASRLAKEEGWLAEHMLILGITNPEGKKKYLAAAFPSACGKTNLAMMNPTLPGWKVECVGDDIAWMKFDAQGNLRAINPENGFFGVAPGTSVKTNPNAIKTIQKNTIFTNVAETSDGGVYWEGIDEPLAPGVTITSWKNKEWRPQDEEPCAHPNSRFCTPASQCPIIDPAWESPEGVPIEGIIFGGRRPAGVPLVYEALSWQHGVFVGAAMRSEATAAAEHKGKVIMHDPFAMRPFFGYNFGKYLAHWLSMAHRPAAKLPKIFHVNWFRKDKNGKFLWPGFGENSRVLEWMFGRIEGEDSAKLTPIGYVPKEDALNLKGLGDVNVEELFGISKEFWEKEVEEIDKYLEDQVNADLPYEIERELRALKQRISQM
Description: as §1

Sequence of Phosphoenolpyruvate carboxykinase, cytosolic [GTP] [H477R] (P07379 whole entry H477R): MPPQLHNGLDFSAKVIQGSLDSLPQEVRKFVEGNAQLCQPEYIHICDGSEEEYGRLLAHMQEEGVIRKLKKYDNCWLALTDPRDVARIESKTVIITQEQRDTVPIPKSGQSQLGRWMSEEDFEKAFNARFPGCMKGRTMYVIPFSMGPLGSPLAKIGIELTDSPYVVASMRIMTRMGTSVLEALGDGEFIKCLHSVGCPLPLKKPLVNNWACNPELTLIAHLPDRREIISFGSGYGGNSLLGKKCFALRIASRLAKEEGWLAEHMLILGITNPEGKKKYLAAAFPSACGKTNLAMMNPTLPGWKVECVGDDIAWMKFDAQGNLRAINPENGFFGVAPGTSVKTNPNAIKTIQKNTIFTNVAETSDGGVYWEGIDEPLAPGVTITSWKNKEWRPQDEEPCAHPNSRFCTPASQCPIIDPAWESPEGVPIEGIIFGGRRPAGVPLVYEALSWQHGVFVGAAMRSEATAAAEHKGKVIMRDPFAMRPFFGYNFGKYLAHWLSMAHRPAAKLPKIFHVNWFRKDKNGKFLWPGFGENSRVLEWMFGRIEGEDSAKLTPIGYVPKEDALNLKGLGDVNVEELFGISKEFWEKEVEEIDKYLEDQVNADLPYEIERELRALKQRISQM

Row | Ki [1] [µM] | SMILES | Ki [2] [µM]
1 | 37 | O=C(O)C(=O)CS(=O)(=O)O [β-Sulfopyruvate] | –
2 | 289 | C=C(OP(=O)(O)O)C(=O)O [PHOSPHOENOLPYRUVATE] | –
3 | 441 | O=C(O)CC(=O)C(=O)O [keto-Oxaloacetate] | –

Row | SMILES | Ki [1] [µM] | Ki [2] [µM]
4 | Nc1nc(O)c2ncn([C@@H]3O[C@H](COP(=O)(O)OP(=O)(O)C[P+]([O-])(O)O)[C@@H](O)[C@H]3O)c2n1 [β,γ-methyleneguanosine 5′-triphosphate] | 696 | 150
